According to US5830868A, “Substituted DI- and tripeptide inhibitors of protein: farnesyl transferase” (Warner-Lambert Company, priority 1996, dated 1998):
Peptide text beside a SMILES is read from it. * marks the point of attachment. Hydrocinnamoyl = O=C(CCc1ccccc1)*; Cbz = O=C(OCc1ccccc1)*; Bn = c1ccc(C*)cc1

What follows are molecules tested against T1, rat brain farnesyl protein transferase (PFT) (Rattus norvegicus, UniProt Q02293+Q04631) (assay: PFT inhibitory activity assay (radiolabeled farnesyl pyrophosphate, biotinyl peptide, streptavidin beads)). Settings: 40-fold purified rat brain enzyme; 0.12 μM [3H]FPP, 0.1 μM biotinyl-Ahe-Tyr-Lys-Cys-Val-Ile-Met; 37° C., 30 minutes; read-out: IC50 (μM) against PFT.
T1 construct: 40-fold purified rat brain farnesyl protein transferase; from tissue; host or cells: rat brain
Type: biochemical
Method: The PFT inhibitory activity of compounds of Formula I was assayed in 30 mM potassium phosphate buffer, pH 7.4, containing 7 mM DTT, 1.2 mM MgCl2, 0.1 mM leupeptin, 0.1 mM pepstatin and 0.2 mM phenylmethylsulfonyl fluoride. Assays were performed in 96 well plates (Wallec) and employed solutions composed of varying concentrations of a compound of Formula I in 100% DMSO. Upon addition of both substrates, radiolabeled farnesyl pyrophosphate ([1-^3 H], specific activity 15--30 Ci/mmol, final concentration 0.12 μM) and (biotinyl)-Ahe-Tyr-Lys-Cys-Val-Ile-Met peptide (final concentration 0.1 μM), the enzyme reaction was started by addition of 40-fold purified rat brain farnesyl protein transferase. After incubation at 37° C. for 30 minutes, the reaction was terminated by diluting the reaction 2.5-fold with a stop buffer containing 1.5M magnesium acetate, 0.2M H3 PO4, 0.5% BSA, and strepavidin beads (Amersham) at a concentration of 1.3 mg/mL. After allowing the plate to settle for 30 minutes at room temperature, radioactivity was quantitated on a microBeta counter (model 1450, Wallec). Compounds of Formula I show IC50 values of 0.5 nM to 80 μM (see data table) in this assay and are thus valuable inhibitors of protein: farnesyl transferase enzyme which may be used in the medical treatment of tissue proliferative diseases, including cancer and restenosis.

T1 sequence (Q02293 whole entry, one chain of several): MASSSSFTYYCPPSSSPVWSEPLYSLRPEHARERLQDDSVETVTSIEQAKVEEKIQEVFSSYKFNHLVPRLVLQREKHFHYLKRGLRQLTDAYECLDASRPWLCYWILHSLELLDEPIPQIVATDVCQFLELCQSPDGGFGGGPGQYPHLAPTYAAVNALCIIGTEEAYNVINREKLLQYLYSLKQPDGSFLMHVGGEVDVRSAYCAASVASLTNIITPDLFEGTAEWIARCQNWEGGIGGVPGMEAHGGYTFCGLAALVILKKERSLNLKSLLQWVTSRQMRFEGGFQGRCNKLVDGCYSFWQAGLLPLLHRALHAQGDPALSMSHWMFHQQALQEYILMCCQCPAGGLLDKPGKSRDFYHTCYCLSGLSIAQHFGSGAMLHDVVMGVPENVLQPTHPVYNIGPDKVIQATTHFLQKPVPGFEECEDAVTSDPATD

Compound | IC50
CCOc1ccc(NC(=O)N[C@H](Cc2c[nH]cn2)C(=O)N[C@@H](Cc2ccc(OCc3ccccc3)cc2)C(=O)NCCOCc2ccccc2)cc1 [5 (61), (4-EtOPh)NHCO--D--His--Tyr(OBn)CONHCH2 CH2 OBn] | 7.2 µM
O=C(CCc1ccccc1)N[C@H](Cc1c[nH]cn1)C(=O)N[C@@H](Cc1ccc(OCc2ccccc2)cc1)C(=O)NCCOCc1ccccc1 [5 (36), PhCH2 CH2 CO--D--His--Tyr(OBn)CONHCH2 CH2 OBn] | 1.9 µM
COc1ccccc1CCCNC(=O)C(Cc1ccc(OCc2ccccc2)cc1)NC(=O)C(Cc1c[nH]cn1)NC(=O)Cc1ccccc1 [5 (69), PhCH2 CO--D--His--Tyr(OBn)CONH(CH2)3 --(2-MeO--Ph)] | 0.48 µM
CN(CCOCc1ccccc1)C(=O)[C@H](Cc1ccc(OCc2ccccc2)cc1)NC(=O)[C@H](Cc1c[nH]cn1)NC(=O)OCc1ccccc1 [Example 29, Nα -[N-[(Phenylmethoxy)carbonyl]-L-histidyl]-O-(phenylmethyl)-N-methyl-N-[2-(phenylmethoxy)ethyl]-L-tyrosinamide] | 3 µM
O=C(N[C@H](Cc1c[nH]cn1)C(=O)N[C@@H](Cc1ccc(OCc2ccccc2)cc1)C(=O)NCCCOc1ccccc1)OCc1ccccc1 [5 (23), BnOCO--D--His--Tyr(OBn)CONHCH2 CH2 CH2 OPh] | 0.64 µM
O=C(Nc1cccc2ccccc12)N[C@H](Cc1c[nH]cn1)C(=O)N[C@@H](Cc1ccc(OCc2ccccc2)cc1)C(=O)NCCCCc1ccccc1 [5 (59), 1-napthyl-NHCO--D--His--Tyr(OBn)CONHCH2 CH2 CH2 CH2 Ph] | 20 µM
COC(=O)[C@H](COCc1ccccc1)NC(=O)[C@H](Cc1ccc(OCc2ccccc2)cc1)NC(=O)[C@H](Cc1c[nH]cn1)NC(=O)CCc1ccccc1 [Example 18, N-[N-[N-(1-Oxo-3-phenylpropyl)-L-histidyl]-O-(phenylmethyl)-L-tyrosyl]-O-(phenylmethyl)-L-serine. methyl ester] (Hydrocinnamoyl-His-Tyr(Bn)-Ser(Bn)-OMe) | 0.82 µM
O=C(Nc1ccc(Oc2ccccc2)cc1)NC(Cc1c[nH]cn1)C(=O)NC(Cc1ccc(OCc2ccccc2)cc1)C(=O)NCCc1ccccc1 [5 (46), (4-PhOPh)NHCO--D--His--Tyr(OBn)--CONHCH2 CH2 Ph] | 1 µM
COC(=O)[C@H](COCc1ccccc1)NC(=O)C(C)(Cc1ccc(OCc2ccccc2)cc1)NC(=O)[C@H](Cc1c[nH]cn1)NC(=O)OCc1ccccc1 (mixture of isomers) [Example 10, N-[α-Methyl-N-[N-[(phenylmethoxy)carbonyl]-L-histidyl]-O-(phenylmethyl)-DL-tyrosyl]-O-(phenylmethyl)-L-serine. methyl ester] | 0.1 µM
COC(=O)[C@H](COCc1ccccc1)NC(=O)[C@H](Cc1ccc(OCc2ccccc2)cc1)NC(=O)[C@H](Cc1c[nH]cn1)NC(=O)OCc1ccccc1 [Example 6, N-[N-[N-[(Phenylmethoxy)carbonyl]-L-histidyl]-O-(phenylmethyl)-L-tyrosyl]-O-(phenylmethyl)-L-serine, methyl ester] (Cbz-His-Tyr(Bn)-Ser(Bn)-OMe) | 0.42 µM
CCOc1ccc(NC(=O)NC(Cc2cnc[nH]2)C(=O)NC(Cc2ccc(OCc3ccccc3)cc2)C(=O)NCCCOc2ccccc2)cc1 (stereo not shown) [5 (63), (4-EtOPh)NHCO--His--Tyr(OBn)CONHCH2 CH2 CH2 OPh] | 1 µM

The remaining molecules from weak to strong by IC50, led by results:

IC50 | Compound
66 µM | O=C(NC1CCCCC1)N[C@H](Cc1c[nH]cn1)C(=O)N[C@@H](Cc1ccc(OCc2ccccc2)cc1)C(=O)NCc1ccccc1 [5 (35), c-hexyl-NHCO--D--His--Tyr(OBn)CONHCH2 Ph]
30 µM | COC(=O)[C@H](COCc1ccccc1)NC(=O)[C@H](CCc1ccc(OCc2ccccc2)cc1)NC(=O)[C@@H](Cc1c[nH]cn1)NC(=O)OCc1ccccc1 [Example 15]
1.7 µM | O=C(NC(Cc1c[nH]cn1)C(=O)NC(Cc1ccc(OCc2ccccc2)cc1)C(=O)NCCCCc1ccccc1)OCc1ccccc1 [5 (64), BnOCO--D--His--Tyr(OBn)CONHCH2 CH2 CH2 CH2 Ph]
1.5 µM | O=C(NC(Cc1cnc[nH]1)C(=O)NC(Cc1ccc(OCc2ccccc2)cc1)C(=O)NCCSCc1ccccc1)OCc1ccccc1 [5 (62), BnOCO--D--His--Tyr(OBn)CONHCH2 CH2 SBn]
0.37 µM | C[C@@](Cc1ccc(OCc2ccccc2)cc1)(NC(=O)[C@@H](Cc1c[nH]cn1)NC(=O)OCc1ccccc1)C(=O)NCCOCc1ccccc1 [Example 22]
